Test system: Trichoderma reesei
Assay: T. reesei cell kill, CFU count on PDA plates
Type: cell-based
Conditions: pH 4, 24 hours, 40° C.
Method: Sodium benzoate was added to separate T. reesei aliquots to a final concentration of 2.5 g/L sodium benzoate or 5 g/L sodium benzoate. The aliquots were then adjusted to pH 4 and incubated for 24 hours at 40° C. After 24 hours of incubation all aliquots were pH adjusted to 4.8 using 10% (w/w) sodium hydroxide. Each aliquot was then serially diluted with sterile water, spread plated onto PDA, and incubated at 25° C. The incubated PDA plates were then counted for CFU.
The aliquots were then adjusted to pH 4 and incubated for 24 hours at 40° C. After 24 hours of incubation all aliquots were pH adjusted to 4.8 using 10% (w/w) sodium hydroxide. Each aliquot was then serially diluted with sterile water, spread plated onto PDA, and incubated at 25° C. The incubated PDA plates were then counted for CFU.

## O=C([O-])c1ccccc1.[Na+] [sodium benzoate]
2.5 g/L sodium benzoate
  log reduction of viable cells: 5 log
5 g/L sodium benzoate
  CFU present after incubation: less than 10 CFU
  log reduction of viable cells: 7 log

— patent publication US8679824B2, “Fermentation broth formulations” (Danisco US Inc., priority 2009, dated 2014)
